Laboratory results from patent US20160374352A1, “BOTANICAL ANTIMICROBIAL COMPOSITIONS” (The Trustees of Columbia University in the City of, priority 2015, published 2016).

Tests used:
[1] = tested on: S. aureus; assay: Method B: surface disinfectant base solution diluted 1:20, 1 minute (Table 8); type: cell-based; settings: stock solution in surface disinfectant base diluted 1:20, 1 minute (Method B)
[2] = tested on: P. aeruginosa; assay: Example 9: phenoxyethanol, PCMX, pine oil compositions diluted 1:20, albumin, 15 seconds (Table 3); type: cell-based; settings: PXE stock 10.0% w/w, 0.5% w/w in 1 to 20 dilution
Procedure: Phenoxyethanol, PCMX and pine oil were added to 50% isopropanol in the amounts described in table 3 below (water was added to bring the total weight % of the composition 100%). The compositions described by table 3 were prepared and diluted 1:20 with water and tested using the following method. P. aeruginosa was used as the test organism (10^8 cfu/ml). 0.1 ml culture was added to 0.1 ml of a 3.0% albumin solution, mixed for 5 seconds and left for 2 minutes at room temperature. 0.8 ml of test sample was added and the tube was vortexed for 15 seconds. Serial dilutions were made with Drug Neutralizing Fluid and aliquots were plated on Trypticase soy broth agar plates. The plates were incubated for 24-48 hours and colony counts were then determined.

[3] = oral rinses of WO/2014/092999; cited from earlier work

| Molecule | synergistic activity with thymol and vanilla extract [3] | also measured |
| --- | --- | --- |
| Cc1cc(O)cc(C)c1Cl [PCMX] | – | log reduction from control growth [1]: 0.5 log |
| OCCOc1ccccc1 [PXE] | – | Log reduction from control [2]: 0.6 log |
| [H]/N=C(\N/C(=N/[H])NCCCCCCNC(=N)NC(=N)Nc1ccc(Cl)cc1)Nc1ccc(Cl)cc1 [chlorhexidine] | did not show significant synergistic activity | – |
| polyhexamethylene biguanide [PHMB] | synergistic activity | – |
